Patent US11325893B2, “Hydrofluoroethers and methods of using same” (3M INNOVATIVE PROPERTIES COMPANY, priority 2018, dated 2022)

Key:
[1] = Log KOW (octanol/water partition coefficient) by HPLC, OECD Method 117; type: physicochemical
Protocol: In these Examples, values of Log KOW (octanol/water partition coefficients) were determined by HPLC using the method described in OECD Method 117.

rats [2] = assay: 4-hour acute inhalation toxicity in rats (LC-50); type: in vivo; conditions: 4 hr inhalation in air, 14-day post-dose monitoring
Protocol: The 4-hour acute inhalation toxicity in rats (LC-50) was measured by dosing animals in air at the amounts shown in Table 2 for 4 hours, followed by 14-day post-dose monitoring. Based on the animal test results and the vapor concentration of the test compound, the LC-50 values were estimated.

rats [3] = assay: Acute single dose oral toxicity in rats; type: in vivo; conditions: single oral dose 2000 mg/kg body weight
Protocol: The acute single dose oral toxicity of Comparative Example CE2 was examined in rats dosed at 2000 mg/kg body weight. […] Based on this study, the LD50 of CE2 was estimated to be >2000 mg/kg body weight.

Row | Compound | Log KOW [1] | LC-50 (4 hr Inhalation rats) (rats [2]) | clinical observations during the post dose recovery period (rats [3]) | necropsy results (rats [3])
1 | COC(F)(C(F)(F)C(F)(F)F)C(F)(C(F)(F)F)C(F)(F)F (centres unmarked) [CE1, NOVEC 7300] | 4.3 | >430 mg/L |  | 
2 | FC(F)(F)C(F)(F)C1(F)OCCC1(C(F)(F)F)C(F)(F)F (centres unmarked) [Example 1, 2-fluoro-2-(1,1,2,2,2-pentafluoroethyl)-3,3-bis(trifluoromethyl)tetrahydrofuran] | 4.4 | >1000 ppmv |  | 
3 | NOVEC 7700 [Comparative Example CE2] | 6.6 |  | No adverse clinical observations | normal for all animals
4 | FC(F)(F)C(F)(F)C(F)(F)C1(C(F)(F)F)CCOC1(F)C(F)(C(F)(F)F)C(F)(F)F (centres unmarked) [Example 2, 2-fluoro-3-(1,1,2,2,3,3,3-heptafluoropropyl)-2-[1,2,2,2-tetrafluoro-1-(trifluoromethyl)ethyl]-3-(trifluoromethyl)tetrahydrofuran] | 5.8 |  |  | 
